The source of these data is US5023269A, “3-aryloxy-3-substituted propanamines” (Eli Lilly and Company, priority 1990, dated 1991).

SMILES strings stand for the structures. Where a name gives a salt, the structure may show the parent alone.

The subject of one assay is serotonin (5HT) uptake. Briefly: Inhibition of 5HT uptake in vitro: synaptosomal uptake of 3H-serotonin in rat cortical synaptosomes. To be noted: 50 nM 3H-5HT, 37° C., 5 min. In kind it is biochemical, rat (male Sprague-Dawley). On the procedure:
(§1) This general procedure is set forth by Wong et al., in Drug Development Research 6:397-403 (1985).
(§2) Male Sprague-Dawley rats (110-150 g) from Harlan Industries (Cumberland, IN) were fed a Purina Chow ad libitum for at least 3 days before being used in the studies. Rats were killed by decapitation. Whole brains were removed and dissected. Cerebral cortex was homogenized in 9 volumes of a medium containing 0.32 M sucrose and 10 mM glucose. Crude synaptosomal preparations were isolated after differential centrifugation at 1,000 g for 10 min. and 17,000 g for 28 min. The final pellets were suspended in the same medium and kept in ice until use within the same day.
(§3) Synaptosomal uptake of ^3 H-serotonin(^3 H-5hydroxytryptamine, ^3 H-5HT) and ^14 C-l-norepinephrine (^14 C-NE) was determined as follows. Cortical synaptosomes (equivalent to 1 mg of protein) were incubated at 37° C. for 5 min in 1 ml of Krebs-bicarbonate medium containing also 10 mM glucose, 0.1 mM iproniazid, 1 mM ascorbic acid, 0.17 mM EDTA, 50 nM ^3 H-5HT and 100 nM ^14 C-NE The reaction mixture was immediately diluted with 2 ml of ice-chilled Krebs-bicarbonate buffer and filtered under vacuum with a cell harvester (Brandel, Gaithersburg, MD). Filters were rinsed twice with approximately 5 ml of ice-chilled 0.9% saline and were transferred to a counting vial containing 10 ml of scintillation fluid (PCS, Amersham, Arlington Heights, IL). Radioactivity was measured by a liquid scintillation spectrophotometer. Accumulation of ^3 H-5HT and ^14 C-NE at 4° C. represented the background and was subtracted from all samples.

For assay [1], the system named is norepinephrine (NE) uptake. Briefly: Inhibition of norepinephrine uptake in vitro: synaptosomal uptake of 14C-l-norepinephrine in rat cortical synaptosomes. The format is biochemical, rat (male Sprague-Dawley). The note with it: 100 nM 14C-NE, 37° C., 5 min. On the procedure: as §1, §2, §3

Broadly, the IC50 is the midpoint of a concentration-inhibition curve. Read a high IC50 as a need for much substance. In the case of `CNCCC(Oc1cccc2ccccc12)c1cccs1` (single isomer, unassigned; (-)) [Example 39, (-)-N-methyl-3-(1-naphthalenyloxy)-3-(2-thienyl)propanamine oxalate], the IC50 is […] in the assay with serotonin (5HT) uptake (oxalate) and 34 nM in assay [1] (oxalate).
`CN(C)CCC(Oc1cccc2ccccc12)c1cccs1` (stereo not shown) [Example 1, N,N-Dimethyl-3-(1-naphthalenyloxy)-3-(2-thienyl)propanamine oxalate]: the 50% inhibitory concentration (IC50) stood at 13 nM in the assay on serotonin (5HT) uptake and 600 nM in assay [1].
With `CNCCC(Oc1cccc2ccccc12)c1cccs1` (stereo not shown) [Example 2, N-Methyl-3-(1-naphthalenyloxy)-3-(2-thienyl)propanamine oxalate], it took […] to reach half-maximal inhibition in the assay with serotonin (5HT) uptake (IC50).
As for `Cc1ccc(C(CCN(C)C)Oc2cccc3ccccc23)s1` (stereo not shown) [Example 3, N,N-Dimethyl-3-(1-naphthalenyloxy)-3-(5-methyl-2-thienyl)propanamine oxalate], the values for the IC50 (in the assay on serotonin (5HT) uptake; in assay [1]) were 55 nM and 720 nM, respectively.
Turning to `Cc1ccsc1C(CCN(C)C)Oc1cccc2ccccc12` (stereo not shown) [Example 4, N,N-Dimethyl-3-(1-naphthalenyloxy)-3-(3-methyl-2-thienyl)propanamine oxalate], it took 76 nM to reach half-maximal inhibition in the assay on serotonin (5HT) uptake (IC50). Further, in assay [1], the “percent inhibition at 1000 nM, NE (number in parentheses)” value (from here on “percent inhibition at 1000 nM, NE”) is 41%.
With `CN(C)CCC(Oc1cccc2ccccc12)c1ccc(Cl)s1` (stereo not shown) [Example 5, N,N-Dimethyl-3-(1-naphthalenyloxy)-3-(5-chloro-2-thienyl)propanamine oxalate], the results for the IC50 (in the assay on serotonin (5HT) uptake; in assay [1]) were 62 nM and 725 nM, respectively.
For `CN(C)CCC(Oc1ccc(C(F)(F)F)c2ccccc12)c1cccs1` (stereo not shown) [Example 6, N,N-Dimethyl-3-[4-(trifluoromethyl)-1naphthalenyloxy]-3-(2-thienyl)propanamine oxalate], in the assay on serotonin (5HT) uptake, half-maximal inhibition (IC50) was put at 114 nM. Also, the “percent inhibition at 1000 nM, NE” value in assay [1] amounted to 9%.
In the assay with serotonin (5HT) uptake, `CNCCC(Oc1ccc(C(F)(F)F)c2ccccc12)c1cccs1` (stereo not shown) [Example 7, N-Methyl-3-[4-(trifluoromethyl)-1-naphthalenyloxy]-3-(2-thienyl)propanamineoxalate] came in with a 50% inhibitory concentration (IC50) of 95 nM. The “percent inhibition at 1000 nM, NE” value in assay [1] stood at 46%.
In the case of `CN(C)CCC(Oc1cccc2ccccc12)c1ccsc1` (stereo not shown) [Example 8, N,N-Dimethyl-3-(1-naphthalenyloxy)-3-(3-thienyl)propanamine oxalate], the results for the IC50 (in the assay on serotonin (5HT) uptake; in assay [1]) were 25 nM and 630 nM, respectively.
Regarding `CNCCC(Oc1cccc2ccccc12)c1ccsc1` (stereo not shown) [Example 9, N-Methyl-3-(1-naphthalenyloxy)-3-(3-thienyl)propanamine oxalate], the IC50 was 18 nM in the assay with serotonin (5HT) uptake and 69 nM in assay [1].
Take `CN(C)CCC(Oc1ccc(Cl)c2ccccc12)c1cccs1` (stereo not shown) [Example 10, N,N-Dimethyl-3-(4-chloro-1-naphthalenyloxy)-3-(2-thienyl)propanamine oxalate]: 36 nM corresponded to half-maximal inhibition with serotonin (5HT) uptake (IC50). In addition, in assay [1], the “percent inhibition at 1000 nM, NE” value is 31%.
Turning to `CNCCC(Oc1ccc(Cl)c2ccccc12)c1cccs1` (stereo not shown) [Example 11, N-Methyl-3-(4-chloro-1-naphthalenyloxy)-3-(2-thienyl)propanamine oxalate], the IC50 in the assay on serotonin (5HT) uptake worked out at 49 nM; in assay [1] it was 77 nM.
In the assay on serotonin (5HT) uptake, `Cc1ccc(OC(CCN(C)C)c2cccs2)c2ccccc12` (stereo not shown) [Example 12, N,N-Dimethyl-3-(4-methyl-1-naphthalenyloxy)-3-(2-thienyl)propanamine oxalate] returned an IC50 of 58 nM. Further, the “percent inhibition at 1000 nM, NE” value in assay [1] is listed as 40%.
Regarding `CNCCC(Oc1cccc2ccccc12)C1CCCCC1` (stereo not shown) [Example 15, N-Methyl-3-(1-naphthalenyloxy)-3-cyclohexylpropanamine oxalate], the IC50 in the assay with serotonin (5HT) uptake stood at 125 nM; in assay [1] it was 90 nM.
Take `CNCCC(Oc1cccc2ccccc12)c1nccs1` (stereo not shown) [Example 16, N-Methyl-3-(1-naphthalenyloxy)-3-(2-thiazolyl)propanamine oxalate]: the concentration for half-maximal inhibition (IC50) in the assay with serotonin (5HT) uptake came out at 70 nM; in assay [1], 205 nM.
In the assay with serotonin (5HT) uptake (oxalate), `CN(C)CCC(Oc1ccc(C(F)(F)F)cc1)c1ccco1` (stereo not shown) [Example 17, N,N-Dimethyl-3-[4-(trifluoromethyl)phenoxy]-3-(2-furanyl)propanamine oxalate] registered an IC50 of 210 nM. The “percent inhibition at 1000 nM, NE” value in assay [1] (oxalate) stood at 5%.
In the assay with serotonin (5HT) uptake, `CN(C)CCC(Oc1ccc(C(F)(F)F)cc1)c1cccs1` (stereo not shown) [Example 18, N,N-Dimethyl-3-[4-(trifluoromethyl)phenoxy]-3-(-22-thienyl)propanamine oxalate] returned a half-inhibitory concentration (IC50) of 190 nM. Besides, in assay [1], the “percent inhibition at 1000 nM, NE” value came out at 15%.
For the compound `CN(C)CCC(Oc1ccc(C(F)(F)F)cc1)c1ccsc1` (stereo not shown) [Example 19, N,N-Dimethyl-3-[4-(trifluoromethyl)phenoxy]-3-(3-thienyl)propanamine oxalate], the IC50 in the assay with serotonin (5HT) uptake worked out at 125 nM. In addition, the “percent inhibition at 1000 nM, NE” value in assay [1] was found to be 17%.
For `CNCCC(Oc1ccc(C(F)(F)F)cc1)c1cccs1` (stereo not shown) [Example 20, N-Methyl-3-[4-(trifluoromethyl)phenoxy-3-(2-thienyl)propanamine oxalate], the IC50 in the assay on serotonin (5HT) uptake stood at 46 nM. In addition, the “percent inhibition at 1000 nM, NE” value in assay [1] came out at 52%.
The compound `CN(C)CCC(Oc1ccc(C(F)(F)F)cc1)c1ccco1` (stereo not shown) [Example 21, N,N-Dimethyl-3-[4-(trifluoromethyl)phenoxy]-3-(2-furanyl)propanamine] showed a 50% inhibitory concentration (IC50) in the assay with serotonin (5HT) uptake of 140 nM. The “percent inhibition at 1000 nM, NE” value in assay [1] was 14%.
`CNCCC(Oc1ccc(C(F)(F)F)cc1)c1ccsc1` (stereo not shown) [Example 22, N-Methyl-3-[4-(trifluoromethyl)phenoxy]-3-(3-thienyl)propanamine oxalate] displayed a 50% inhibitory concentration (IC50) in the assay on serotonin (5HT) uptake of 100 nM. Besides, the “percent inhibition at 1000 nM, NE” value in assay [1] is recorded as 36%.
Take `CNCCC(Oc1ccc(C(F)(F)F)cc1)c1ccco1` (stereo not shown) [Example 23, N-Methyl-3-[4-(trifluoromethyl)phenoxy]-3-(2-furanyl)propanamine oxalate]: the half-inhibitory concentration (IC50) in the assay with serotonin (5HT) uptake was 54 nM; in assay [1], 1100 nM.
`Cc1ccc(OC(CCN(C)C)c2cccs2)cc1` (stereo not shown) [Example 24, N,N-Dimethyl-3-(4-methylphenoxy)-3-(2-thienyl)propanamine oxalate]: the values for the IC50 (with serotonin (5HT) uptake; in assay [1]) were 125 nM and 430 nM, respectively.
With `CN(C)CCC(Oc1ccc(Cl)cc1)c1cccs1` (stereo not shown) [Example 25, N,N-Dimethyl-3-(4-chlorophenoxy)-3-(2-thienyl)propanamine oxalate], the half-maximal inhibitory concentration (IC50) in the assay with serotonin (5HT) uptake turned out to be 170 nM; in assay [1] it was 820 nM.
In the case of `CNCCC(Oc1ccc(C)cc1)c1cccs1` (stereo not shown) [Example 26, N-Methyl-3-(4-methylphenoxy)-3-(2-thienyl)propanamine oxalate], the results for the half-inhibitory concentration (IC50) (with serotonin (5HT) uptake; in assay [1]) were 112 nM and 22 nM, respectively.
In the case of `CNCCC(Oc1ccc(Cl)cc1)c1cccs1` (stereo not shown) [Example 27, N-Methyl-3-(4-chlorophenoxy)-3-(2-thienyl)propanamine oxalate], the concentration for half-maximal inhibition (IC50) in the assay with serotonin (5HT) uptake was 91 nM; in assay [1], 59 nM.
For the compound `CNCCC(Oc1ccc(OC)cc1)c1cccs1` (stereo not shown) [Example 28, N-Methyl-3-(4-methoxyphenoxy)-3-(2-thienyl)propanamine oxalate], the results for the IC50 (with serotonin (5HT) uptake; in assay [1]) were 50 nM and 260 nM, respectively.
In the assay with serotonin (5HT) uptake, `COc1ccc(OC(CCN(C)C)c2cccs2)cc1` (stereo not shown) [Example 29, N,N-Dimethyl-3-(4-methoxyphenoxy)-3-(2thienyl)propanamine oxalate] registered an IC50 of 410 nM. In addition, the “percent inhibition at 1000 nM, NE” value in assay [1] came to 18%.
